According to ChEMBL document CHEMBL5291721, “A preclinical secondary pharmacology resource illuminates target-adverse drug reaction associations of marketed drugs” (Nat Commun, 2023):

Legend:
Progesterone receptor = biological target: T1, Progesterone receptor (Homo sapiens, UniProt P06401); assay type: functional
T1 sequence (P06401 whole entry): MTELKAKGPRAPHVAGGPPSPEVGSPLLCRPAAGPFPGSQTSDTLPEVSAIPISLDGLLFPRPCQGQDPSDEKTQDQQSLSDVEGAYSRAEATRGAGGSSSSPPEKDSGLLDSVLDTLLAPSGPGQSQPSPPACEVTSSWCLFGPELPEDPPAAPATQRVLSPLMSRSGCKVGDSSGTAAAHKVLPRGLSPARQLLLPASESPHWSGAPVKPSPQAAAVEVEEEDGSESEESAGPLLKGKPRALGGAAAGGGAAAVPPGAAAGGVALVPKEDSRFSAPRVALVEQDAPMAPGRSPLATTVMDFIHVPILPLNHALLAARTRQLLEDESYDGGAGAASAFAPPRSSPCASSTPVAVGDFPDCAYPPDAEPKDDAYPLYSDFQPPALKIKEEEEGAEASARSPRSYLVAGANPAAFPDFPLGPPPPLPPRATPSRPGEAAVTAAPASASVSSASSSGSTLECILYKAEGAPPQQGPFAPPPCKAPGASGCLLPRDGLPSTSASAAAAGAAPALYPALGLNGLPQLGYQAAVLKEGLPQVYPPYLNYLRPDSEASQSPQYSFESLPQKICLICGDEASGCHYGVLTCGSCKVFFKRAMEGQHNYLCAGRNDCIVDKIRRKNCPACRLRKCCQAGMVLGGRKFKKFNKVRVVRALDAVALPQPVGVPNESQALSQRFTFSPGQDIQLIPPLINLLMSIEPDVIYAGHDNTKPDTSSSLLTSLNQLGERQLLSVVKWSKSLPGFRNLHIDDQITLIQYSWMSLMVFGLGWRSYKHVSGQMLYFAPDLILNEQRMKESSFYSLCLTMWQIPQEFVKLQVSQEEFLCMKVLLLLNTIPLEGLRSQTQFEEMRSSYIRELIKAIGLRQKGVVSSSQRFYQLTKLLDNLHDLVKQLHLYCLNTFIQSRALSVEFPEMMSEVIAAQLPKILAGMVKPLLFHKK

Mu-type opioid receptor = Mu-type opioid receptor (Homo sapiens, UniProt P35372)
Mu-type opioid receptor, sequence (P35372 whole entry): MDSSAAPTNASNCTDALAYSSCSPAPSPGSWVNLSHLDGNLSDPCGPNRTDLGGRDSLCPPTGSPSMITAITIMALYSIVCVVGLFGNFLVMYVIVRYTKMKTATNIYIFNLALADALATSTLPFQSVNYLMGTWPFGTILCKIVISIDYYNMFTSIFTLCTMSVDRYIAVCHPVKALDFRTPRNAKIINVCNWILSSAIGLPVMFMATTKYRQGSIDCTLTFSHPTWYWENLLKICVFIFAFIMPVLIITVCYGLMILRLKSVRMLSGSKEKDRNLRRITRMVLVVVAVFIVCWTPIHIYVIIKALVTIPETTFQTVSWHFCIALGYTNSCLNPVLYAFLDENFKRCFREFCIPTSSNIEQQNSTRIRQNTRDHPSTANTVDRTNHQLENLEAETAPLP

Vasopressin V2 receptor = Vasopressin V2 receptor (Homo sapiens, UniProt P30518)
Vasopressin V2 receptor, sequence (P30518 whole entry): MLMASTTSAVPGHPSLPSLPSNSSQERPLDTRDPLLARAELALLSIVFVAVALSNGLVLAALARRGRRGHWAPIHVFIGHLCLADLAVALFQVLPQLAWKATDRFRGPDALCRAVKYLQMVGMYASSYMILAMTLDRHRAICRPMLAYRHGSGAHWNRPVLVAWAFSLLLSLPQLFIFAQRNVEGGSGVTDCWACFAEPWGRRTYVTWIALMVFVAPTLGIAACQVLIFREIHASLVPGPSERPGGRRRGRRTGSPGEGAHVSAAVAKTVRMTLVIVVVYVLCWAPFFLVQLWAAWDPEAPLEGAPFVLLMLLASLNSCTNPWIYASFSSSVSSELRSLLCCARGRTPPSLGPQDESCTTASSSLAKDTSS

Histamine H3 receptor = Histamine H3 receptor (Homo sapiens, UniProt Q9Y5N1)
Histamine H3 receptor, sequence (Q9Y5N1 whole entry): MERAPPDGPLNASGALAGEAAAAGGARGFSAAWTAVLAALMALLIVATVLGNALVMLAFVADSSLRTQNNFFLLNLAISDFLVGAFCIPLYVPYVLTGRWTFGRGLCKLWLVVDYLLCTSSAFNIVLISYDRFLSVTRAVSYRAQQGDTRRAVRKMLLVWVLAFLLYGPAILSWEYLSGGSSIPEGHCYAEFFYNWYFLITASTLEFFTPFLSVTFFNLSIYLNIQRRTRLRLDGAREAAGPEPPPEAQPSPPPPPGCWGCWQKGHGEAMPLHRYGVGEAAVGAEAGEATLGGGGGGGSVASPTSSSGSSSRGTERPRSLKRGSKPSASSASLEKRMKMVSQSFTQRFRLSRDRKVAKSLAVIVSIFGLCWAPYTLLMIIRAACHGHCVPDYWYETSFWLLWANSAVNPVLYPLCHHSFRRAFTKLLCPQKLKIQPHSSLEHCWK

[1] = biological target: Sodium-dependent noradrenaline transporter (Homo sapiens, UniProt P23975)
Sodium-dependent noradrenaline transporter, sequence (P23975 whole entry): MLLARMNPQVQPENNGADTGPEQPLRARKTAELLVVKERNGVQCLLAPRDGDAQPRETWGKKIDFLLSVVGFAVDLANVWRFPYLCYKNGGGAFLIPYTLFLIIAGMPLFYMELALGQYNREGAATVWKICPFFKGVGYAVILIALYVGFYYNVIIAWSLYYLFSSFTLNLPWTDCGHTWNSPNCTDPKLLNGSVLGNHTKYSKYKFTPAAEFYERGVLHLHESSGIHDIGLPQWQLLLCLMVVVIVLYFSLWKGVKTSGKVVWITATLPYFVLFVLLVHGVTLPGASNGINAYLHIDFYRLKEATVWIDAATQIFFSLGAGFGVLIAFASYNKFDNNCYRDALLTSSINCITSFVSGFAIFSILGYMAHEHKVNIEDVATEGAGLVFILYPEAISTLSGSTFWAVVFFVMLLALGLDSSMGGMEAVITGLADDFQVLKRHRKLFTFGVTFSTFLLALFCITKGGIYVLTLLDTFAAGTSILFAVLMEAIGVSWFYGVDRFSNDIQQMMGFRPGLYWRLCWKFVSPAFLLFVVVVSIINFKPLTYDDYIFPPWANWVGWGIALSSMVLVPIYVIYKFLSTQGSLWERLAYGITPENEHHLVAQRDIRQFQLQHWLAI

[2] = biological target: Prostaglandin G/H synthase 1 (Homo sapiens, UniProt P23219); assay type: functional
Prostaglandin G/H synthase 1, sequence (P23219 whole entry): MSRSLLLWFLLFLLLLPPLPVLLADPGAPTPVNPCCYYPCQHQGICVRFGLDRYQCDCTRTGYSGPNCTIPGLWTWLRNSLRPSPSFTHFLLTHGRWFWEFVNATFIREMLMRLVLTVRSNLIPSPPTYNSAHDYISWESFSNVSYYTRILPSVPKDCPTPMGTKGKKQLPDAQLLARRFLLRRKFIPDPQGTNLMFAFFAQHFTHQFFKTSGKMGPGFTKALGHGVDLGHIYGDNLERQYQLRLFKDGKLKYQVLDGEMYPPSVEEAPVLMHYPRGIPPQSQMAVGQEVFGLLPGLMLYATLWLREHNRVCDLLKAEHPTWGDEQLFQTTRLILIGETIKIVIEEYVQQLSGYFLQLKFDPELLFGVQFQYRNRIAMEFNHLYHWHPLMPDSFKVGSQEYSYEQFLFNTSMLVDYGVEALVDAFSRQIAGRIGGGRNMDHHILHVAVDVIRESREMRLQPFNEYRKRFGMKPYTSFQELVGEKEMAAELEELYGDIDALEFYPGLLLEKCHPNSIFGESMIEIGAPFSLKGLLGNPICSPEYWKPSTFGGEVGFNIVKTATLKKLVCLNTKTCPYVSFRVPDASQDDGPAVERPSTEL
Also: assay procedure not described here.

Compound | AC50 (Progesterone receptor) [µM] | AC50 (Mu-type opioid receptor) [µM] | AC50 (Vasopressin V2 receptor) [µM] | AC50 (Histamine H3 receptor) [µM] | AC50 [1] [µM] | AC50 [2] [µM]
CO/N=C(\C(=O)N[C@@H]1C(=O)N2C(C(=O)[O-])=C(C[N+]3(C)CCCC3)CS[C@H]12)c1csc(N)n1 | > 300 | > 300 | > 30 |  |  | 
CC(=O)c1ccc2c(c1)N(CCCN1CCN(CCO)CC1)c1ccccc1S2 [ACETOPHENAZINE] | > 30 | > 30 |  |  |  | 
COC(=O)N[C@H](C(=O)N[C@@H](Cc1ccccc1)[C@@H](O)CN(Cc1ccc(-c2ccccn2)cc1)NC(=O)[C@@H](NC(=O)OC)C(C)(C)C)C(C)(C)C [ATAZANAVIR] | > 30 | > 30 | > 30 |  |  | 
CN1CCCC(n2nc(Cc3ccc(Cl)cc3)c3ccccc3c2=O)CC1 (centres undefined) [AZELASTINE] | > 30 | 23 |  |  |  | 
C(=N\NC1=NCCN1)/c1c2ccccc2c(/C=N/NC2=NCCN2)c2ccccc12 [BISANTRENE] |  |  |  | > 30 | 7.13 | > 30
N[C@@H](C(=O)N[C@@H]1C(=O)N2C(C(=O)O)=C(Cl)CS[C@H]12)c1ccccc1 [CEFACLOR ANHYDROUS] | > 30 |  | > 30 |  |  | 
CCO/N=C(\C(=O)N[C@@H]1C(=O)N2C(C(=O)[O-])=C(Sc3nc(-c4cc[n+](C)cc4)cs3)CS[C@H]12)c1nsc(N)n1 [CEFTAROLINE] |  |  |  | > 30 | > 30 | > 30
Cc1cc(O)cc(C)c1Cl [CHLOROXYLENOL] |  |  |  | > 30 | > 30 | > 3
C[N+](C)(C)CCCCCCCCCC[N+](C)(C)C [DECAMETHONIUM] |  |  |  | > 30 | > 30 | > 30
O=C(O)c1cc(-c2ccc(F)cc2F)ccc1O [DIFLUNISAL] | > 10 | > 30 | > 10 |  |  | 
O=C1c2ccccc2C(=O)C1C(=O)C(c1ccccc1)c1ccccc1 [DIPHENADIONE] |  |  |  | > 30 | > 30 | 15.6
CCC(=O)O[C@H]1[C@H](O[C@@H]2[C@@H](C)[C@H](O[C@H]3C[C@@](C)(OC)[C@@H](O)[C@H](C)O3)[C@@H](C)C(=O)O[C@H](CC)[C@@](C)(O)[C@H](O)[C@@H](C)C(=O)[C@H](C)C[C@@]2(C)O)O[C@H](C)C[C@@H]1N(C)C [ERYTHROMYCIN PROPIONATE] |  |  |  | > 30 | 29.9 | > 30
CCOC(=O)c1ccc(O)cc1 [ETHYLPARABEN] |  |  |  | > 30 | > 30 | > 1
O=C1[C@H](CC[C@H](O)c2ccc(F)cc2)[C@@H](c2ccc(O)cc2)N1c1ccc(F)cc1 [EZETIMIBE] |  |  |  | > 30 | 24 | > 30
Cc1c(-c2ccccc2)oc2c(C(=O)OCCN3CCCCC3)cccc2c1=O [FLAVOXATE] |  |  |  | 24.6 | 11.3 | > 30
CCC(=O)c1c(O)cc(O)cc1O [FLOPROPIONE] |  |  |  | > 30 | > 30 | 22.3
CC1(C)O[C@@H]2C[C@H]3[C@@H]4C[C@H](F)C5=CC(=O)CC[C@]5(C)[C@H]4[C@@H](O)C[C@]3(C)[C@]2(C(=O)CO)O1 [FLURANDRENOLIDE] |  |  |  | > 30 | > 30 | > 30
CC(C)C(=O)Nc1ccc([N+](=O)[O-])c(C(F)(F)F)c1 [FLUTAMIDE] | > 10 | > 30 | > 30 | > 30 | > 30 | > 30
C[C@@H]1O[C@@H]1P(=O)(O)O [FOSFOMYCIN] | > 30 | > 30 | > 10 |  |  | 
COc1ccc2c(c1)C(=O)N(CCc1ccc(S(=O)(=O)NC(=O)NC3CCCCC3)cc1)C(=O)C2(C)C [GLIQUIDONE] | > 30 |  | > 30 |  |  | 
CC(C)Cc1ccc(CC(=O)O)cc1 [IBUFENAC] | > 30 | > 30 |  |  |  | 
CC(C)NNC(=O)c1ccncc1 [IPRONIAZID] | > 30 | > 30 |  |  |  | 
NC[C@H]1O[C@H](O[C@H]2[C@H](O)[C@@H](O[C@H]3O[C@H](CO)[C@@H](O)[C@H](N)[C@H]3O)[C@H](N)C[C@@H]2N)[C@H](O)[C@@H](O)[C@@H]1O [KANAMYCIN] | > 10 | > 30 | > 10 |  |  | 
C#C[C@]1(O)CC[C@H]2[C@@H]3CCC4=CC(=O)CC[C@@H]4[C@H]3CC[C@@]21CC [LEVONORGESTREL] |  |  |  | > 30 | > 30 | > 30

Compound | AC50 (Progesterone receptor) [µM] | AC50 (Mu-type opioid receptor) [µM] | AC50 (Vasopressin V2 receptor) [µM] | AC50 (Histamine H3 receptor) [µM] | AC50 [1] [µM] | AC50 [2] [µM]
OC[C@@H](O)[C@@H](O)[C@H](O)[C@H](O)CO [MANNITOL] |  |  |  | > 30 | > 30 | > 30
CN1CCCC(CN2c3ccccc3Sc3ccccc32)C1 (centres undefined) [MEPAZINE] |  |  |  | 22.3 | 2.38 | 21.6
Sc1ncnc2nc[nH]c12 [MERCAPTOPURINE ANHYDROUS] |  |  |  | > 30 | > 30 | > 30
C[N+]1(C)[C@@H]2C[C@@H](OC(=O)[C@H](CO)c3ccccc3)C[C@H]1[C@@H]1O[C@@H]12 [METHSCOPOLAMINE] |  |  |  | > 30 | > 30 | > 30
CN1C(=O)CC(C)(c2ccccc2)C1=O (centres undefined) [METHSUXIMIDE] | > 10 | > 30 | > 10 |  |  | 
C[C@H]1C[C@@H]2[C@H]([C@@H](O)C[C@@]3(C)[C@H]2CC[C@]3(O)C(=O)CO)[C@@]2(C)C=CC(=O)C=C12 [METHYLPREDNISOLONE] | 1.3 | > 30 | > 10 |  |  | 
CC(=O)Oc1c(C)cc(OCC(O)CNC(C)C)c(C)c1C (centres undefined) [METIPRANOLOL] |  |  |  | > 30 | > 30 | > 30
CC(C)(C(=O)c1cccnc1)c1cccnc1 [METYRAPONE] | > 10 | > 30 | > 10 |  |  | 
Cc1cccc(C)c1OCC(C)N (centres undefined) [MEXILETINE] | > 30 |  | > 30 |  |  | 
NC(=O)c1ncn([C@@H]2O[C@H](CO)[C@@H](O)[C@H]2O)c1O [MIZORIBINE] | > 30 |  | > 30 |  |  | 
O=C1CC[C@@]2(O)[C@H]3Cc4ccc(O)c5c4[C@@]2(CCN3CC2CC2)[C@H]1O5 [NALTREXONE] |  |  |  | > 30 | > 30 | > 30
OCCN1CCN(CCCN2c3ccccc3C=Cc3ccccc32)CC1 [OPIPRAMOL] | > 30 |  | > 30 | 19 | 6.62 | 27.5
NC1=NC(=O)C(c2ccccc2)O1 (centres undefined) [PEMOLINE] |  | > 30 | > 30 |  |  | 
CC(N/C(=N\C#N)Nc1ccncc1)C(C)(C)C (centres undefined) [PINACIDIL ANHYDROUS] |  |  |  | > 10 | > 30 | > 30
CC[C@H](C)C(=O)O[C@H]1C[C@H](O)C=C2C=C[C@H](C)[C@H](CC[C@@H](O)C[C@@H](O)CC(=O)O)[C@H]21 [PRAVASTATIN] | > 30 | > 30 |  |  |  | 
CC(O)CO (centres undefined) [PROPYLENE GLYCOL] |  |  |  | > 30 | > 30 | > 30
CN(C)C(=O)Oc1ccc[n+](C)c1 [PYRIDOSTIGMINE] |  |  |  | > 30 | > 30 | > 30
Cc1cc2c(cc1CC(=O)c1sccc1S(=O)(=O)Nc1onc(C)c1Cl)OCO2 [SITAXENTAN] |  |  |  | > 30 | > 30 | > 30
CNC(=O)c1cc(Oc2ccc(NC(=O)Nc3ccc(Cl)c(C(F)(F)F)c3)cc2)ccn1 [SORAFENIB] | > 30 | > 30 | > 30 |  |  | 
CC(C(=O)O)c1ccc(C(=O)c2cccs2)cc1 (centres undefined) [SUPROFEN] | > 10 | > 30 | > 10 |  |  | 
Cc1ccc(O)c2ncccc12 [TILIQUINOL] |  |  |  | > 30 | 6.22 | > 30
Cc1ccc(C(=O)c2cc(O)c(O)c([N+](=O)[O-])c2)cc1 [TOLCAPONE] | > 30 | > 30 | > 10 |  |  | 
NC[C@H]1CC[C@H](C(=O)O)CC1 [TRANEXAMIC ACID] | > 10 | > 30 | > 10 |  |  | 
CC(=O)OC[C@H]1O[C@@H](n2ccc(=O)[nH]c2=O)[C@H](OC(C)=O)[C@@H]1OC(C)=O [URIDINE TRIACETATE] |  |  |  | > 30 | > 30 | > 30
